# Source: US20050256077A1, “Gastrointestinal stem cells and uses thereof” (priority 2004, published 2005)
# How the values were obtained:
# [1] = cited from earlier work
# [2] = cited from earlier work; remark: listed apart in the source
# [3] = tested on: intestinal crypts; type: in vivo, mice
# Procedure: The following model is preferable for luminal delivery of stem cell preparations, particularly wherein a second clamping procedure, such as the day after the damage, is preferable. As there are already published studies on IP delivery of DOX to mice (Ijiri and Potten, 1987; Moore, 1985), minimal additional studies were needed to establish this model. However, although it was already known that an IP dose of 20 mg/kg/BW DOX elicits apoptosis predominantly in the stem cell zone (Ijiri and Potten, 1987) and ablates approximately 50% of the stem cells (Moore, 1985), a complete time course of apoptosis has not been reported. Considering the nature of the timing of stem cell delivery, an apoptosis time course was performed in FIG. 6. […] In contrast, gross morphologic damage is not seen until 72 hr and appears maximal by 96 hr (FIG. 7). By 120 hr the beginning of crypt regeneration from the remaining stem cells is apparent (not shown). Based on these findings, after DOX the optimal time for luminal delivery of stem cells is 6 hr. […] At the same time, a significant proportion of the endogenous stem cells have been ablated, creating an opportunity for the exogenous cells to engraft. The clamping procedure after IP delivery of DOX has been performed successfully, and no evidence was found of gross bleeding into the clamped segment. There is, however, significant morbidity after the IP DOX. For example, body weights initially fall to a similar extent to that after luminal DOX, but in the case of IP DOX they never recover. Although our 10-day survival data after IP DOX is 100%, the literature predicts 40-50% mortality over the next 2 weeks (Oredipe et al., 2003). However, if the myelosuppressive effects of DOX are countered by administration of the drug Swainsonine (Sigma-Aldrich), for example the mice can be maintained until at least 70 days with only 36% mortality (Oredipe et al., 2003).
# [4] = tested on: crypts of the mouse small intestine; settings: cited from earlier work; for i.p. dose that causes sterilization of 50% of crypts: dose-response data of Moore (1985)
# [5] = cited from earlier work; remark: listed apart in the source
# [6] = tested on: intestinal crypts; experiment: Model I: luminal delivery of cytotoxic drugs to clamped jejunal segment, crypt apoptosis by histology; type: in vivo, mouse; settings: for apoptosis in experimental segments / apoptosis in upstream segments: luminal delivery to clamped jejunal segment for 4 hr, 20 mg/kg BW; for apoptosis in experimental segments: apoptotic bodies in H & E sections; for apoptosis in upstream segments: segment immediately upstream
# Source text: A surgical model was developed that is simple and rapid enough to allow appropriate numbers of animals to be studied in a reasonable time period. To this end, a procedure was developed in which a 1 cm piece of jejunum is flushed and then clamped (with microvascular serrefines), the drug or vehicle was delivered to the clamped segment via a 27 gauge needle, the bowel is returned to the abdominal cavity and the incisions in both the peritoneum and the skin are sutured closed. The animal was allowed to regain consciousness for 4-6 hr. At the end of this time there was another brief isofluorane anesthesia, during which the original incisions are opened and the clamps are removed. In addition, at this time the location of the clamps was indicated by a piece of 5-0 silk.
# Various doses of DOX and Bleomycin were delivered to clamped segments for 4 hr, then tissue from the experimental segment as well as a segment immediately upstream was collected for histology. Tissue sections were stained with H & E, and apoptosis was assessed by the presence of apoptotic bodies. For quantifying apoptotic cells, 10 crypts per animal (n=3) were selected and scored by a skilled artisan blinded to the experimental conditions. […] Thus, Bleomycin was being absorbed into the circulation and, thus, affecting the entire intestine. In contrast, DOX appears to be capable of local action, thus creating a suitable model for subsequent experiments.
# In order to verify that luminally delivered DOX was affecting the stem cell region, the position of apoptotic cells within the crypt was scored. […] This is very similar to the pattern that has been previously reported following IP delivery of DOX (Ijiri and Potten, 1987).
# [7] = mouse, in vivo; cited from earlier work
# [8] = i.p. LD50 (literature); type: in vivo; settings: mice
# [9] = tested on: bone marrow; settings: administered systemically (Goodman and Gilman, 1975); cited from earlier work
# [10] = mice; cited from earlier work
compound,measurement,setting,value
O[C@H]1[C@H]2[C@H](O)CCCN2C[C@H]1O [Swainsonine],mortality until at least 70 days,[1]; Swainsonine given to counter myelosuppressive effects of DOX,36%
"COc1cccc2c1C(=O)c1c(O)c3c(c(O)c1C2=O)C[C@@](O)(C(=O)CO)C[C@@H]3O[C@H]1C[C@H](N)[C@H](O)[C@H](C)O1 [DOX, doxorubicin]",removed by the liver in a single pass,[2],60%
same,time of apoptosis peak,[3]; IP DOX 20 mg/kg BW,6 h
same,time of beginning of crypt regeneration from remaining stem cells,[3]; IP DOX 20 mg/kg BW,≤ 120 h
same,time of maximal gross morphologic damage,[3]; IP DOX 20 mg/kg BW,≤ 96 hr
same,time until gross morphologic damage is seen,[3]; IP DOX 20 mg/kg BW,72 hr
same,apoptosis by 24 hr,"[3]; IP DOX 20 mg/kg BW, 24 hr",greatly reduced
same,body weights,"[3]; mouse, in vivo, ip",never recover
same,10-day survival,"[3]; mouse, in vivo, ip, 10 day",100%
same,small intestinal crypts sterilized,"[4]; IP 20 mg/kg BW (Moore, 1985)",approximately 50%
same,stem cells ablated,"[4]; IP dose of 20 mg/kg/BW (Moore, 1985)",approximately 50%
same,i.p. dose that causes sterilization of 50% of crypts,[4],15 mg/kg
same,solubility in normal saline,[5],soluble in normal saline
same,mortality over the next 2 weeks,"[1]; after IP DOX, beyond 10 days, literature prediction",40-50%
same,damage to the basement membrane or to the underlying stromal tissue,"[6]; luminal DOX, light and EM levels",no evidence of damage
same,apoptosis in experimental segments,[6],significant apoptosis
same,apoptosis in upstream segments,[6],minimal effects
same,half-life,[7],35 min
Bleomycin,i.p. LD50 relative to i.p. dose causing sterilization of 50% of intestinal crypts,[8],~4 fold
same,i.p. dose that causes sterilization of 50% of crypts,[4],60 mg/kg
same,toxicity to bone marrow,[9],minimal toxicity to bone marrow
same,solubility in normal saline,[5],soluble in normal saline
same,i.p. LD50,[10],210 mg/kg
same,apoptosis in experimental segments,[6],caused apoptosis
same,apoptosis in upstream segments,[6],caused apoptosis in both experimental segment and upstream segments
